PMC10712727, “Safety, Tolerability, and Pharmacokinetics of Senaparib, a Novel PARP1/2 Inhibitor, in Chinese Patients With Advanced Solid Tumors: A Phase I Trial” (The Oncologist, 2023)

Test system: patients with advanced solid tumors
Test: Safety: treatment-emergent and senaparib-related adverse events graded per NCI CTCAE v4.03
Format: in vivo
Protocol: This phase I, open-label, multicenter, dose-escalation, and dose-expansion study was conducted at three national clinical institutions in China. […] At baseline, all patients enrolled in the dose-escalation phase had to have at least one evaluable lesion, and those in the dose-expansion period had to have at least one measurable lesion, according to Response Evaluation Criteria in Solid Tumors version 1.1 (RECIST v1.1).[16] Entry to the dose-expansion cohort required the presence of a BRCA mutation, with the exception of patients with ovarian carcinoma, fallopian tube carcinoma, and primary peritoneal carcinoma. Full study eligibility criteria are provided in Supplementary Table S1.
Dose escalation was conducted using a modified Fibonacci 3 + 3 method (Supplementary Fig. S1).[17] Patients were administered oral senaparib from a planned starting dose of 2 mg once daily (QD), with preliminary dose escalation to 120 mg via nine dose groups, in order of their entry into the study. At a given dose level, each patient received a single dose of senaparib followed by a 7-day washout period. They then entered a continuous dosing period to confirm the safety and PK profile, in which they received senaparib QD from day 1 to day 21 of each 3-week cycle. Progression to the next higher dose required approval from the Data Safety Monitoring Committee (DSMC) upon review of the safety and PK data of the previous dose. A 50-mg twice-daily (BID) dosing group was added (planned enrollment, n = 6 patients) based on a DSMC review of the safety, PK, and efficacy analysis of the completed QD dose groups in the phase I clinical trial of senaparib dose escalation in Australia (NCT03507543), which commenced prior to the start of this trial.
The dose-expansion period included 3 populations: dose groups in which at least one patient achieved complete response (CR) or partial response (PR) per RECIST v1.1[16] and 1 dose group higher (evaluated for safety), as well as the dose group at the maximum tolerated dose (MTD)/recommended phase II dose (RP2D). Each of these groups included those patients in the respective dose-escalation group plus a planned additional 10 patients (approximately 20 patients in the MTD/RP2D group) with BRCA^mut+ solid tumors (ovarian, breast, or prostate cancer were preferred, and ovarian cancer could be BRCA wild type). Patients received senaparib monotherapy orally QD or BID (50-mg dose only) over each 3-week cycle until disease progression or unacceptable toxicity.
DLTs were predefined toxicities (Supplementary Table S2) recorded over the 7 days following the single-dose administration of senaparib and during the first treatment cycle (day 1-day 21) for each dose group in the dose-escalation period only. The MTD was defined as the maximum dose at which ≤1/6 patients experienced a DLT. Senaparib PK parameters were derived from blood samples collected from patients after the single administration, and at regular intervals during the first cycle of the dose-escalation and dose-expansion periods. Plasma concentrations of senaparib were determined using high-performance liquid chromatography-tandem mass spectrometry. Tumor response was assessed every 6 weeks per RECIST v1.1,[16] recording objective response rate (ORR), disease control rate (DCR), duration of response (DOR), and progression-free survival (PFS) by dose level for all patients and for those harboring BRCA^mut+ tumors.

O=C(c1cc(Cn2c(=O)[nH]c(=O)c3c(F)cccc32)ccc1F)N1CCN(c2ncccn2)CC1 [Senaparib]
TRAEs Grade ≥3, events (40 mg QD n = 3): 0 n ev | TRAEs Grade ≥3, patients (40 mg QD n = 3): 0 n (%) | TRAEs, events (40 mg QD n = 3): 6 n ev | TRAEs, patients (40 mg QD n = 3): 3 (100) n (%) | Vomiting TRAE, All (40 mg QD n = 3): 0 n (%) | Vomiting TRAE, Gr≥3 (40 mg QD n = 3): 0 n (%) | WBC decreased TRAE, All (40 mg QD n = 3): 0 n (%) | WBC decreased TRAE, Gr≥3 (40 mg QD n = 3): 0 n (%) | ALT increased TRAE, All (50 mg BID n = 4): 1 (25.0) n (%) | ALT increased TRAE, Gr≥3 (50 mg BID n = 4): 0 n (%) | AST increased TRAE, All (50 mg BID n = 4): 1 (25.0) n (%) | AST increased TRAE, Gr≥3 (50 mg BID n = 4): 0 n (%) | Anemia TRAE, All (50 mg BID n = 4): 3 (75.0) n (%) | Anemia TRAE, Gr≥3 (50 mg BID n = 4): 2 (50.0) n (%) | Any TEAE, All (50 mg BID n = 4): 4 (100) n (%) | Any TEAE, Gr≥3 (50 mg BID n = 4): 3 (75.0) n (%) | Any TEAE, events (50 mg BID n = 4): 32 n ev | Any TEAE, patients (50 mg BID n = 4): 4 (100) n (%) | Any TRAE, All (50 mg BID n = 4): 4 (100) n (%) | Any TRAE, Gr≥3 (50 mg BID n = 4): 2 (50.0) n (%) | Appetite decreased TRAE, All (50 mg BID n = 4): 0 n (%) | Appetite decreased TRAE, Gr≥3 (50 mg BID n = 4): 0 n (%) | Asthenia TRAE, All (50 mg BID n = 4): 1 (25.0) n (%) | Asthenia TRAE, Gr≥3 (50 mg BID n = 4): 0 n (%) | Blood bilirubin increased TRAE, All (50 mg BID n = 4): 0 n (%) | Blood bilirubin increased TRAE, Gr≥3 (50 mg BID n = 4): 0 n (%) | Blood creatinine increased TRAE, All (50 mg BID n = 4): 0 n (%) | Blood creatinine increased TRAE, Gr≥3 (50 mg BID n = 4): 0 n (%) | Hypokalemia TRAE, All (50 mg BID n = 4): 0 n (%) | Hypokalemia TRAE, Gr≥3 (50 mg BID n = 4): 0 n (%) | Nausea TRAE, All (50 mg BID n = 4): 2 (50.0) n (%) | Nausea TRAE, Gr≥3 (50 mg BID n = 4): 0 n (%) | Neutrophil count decreased TRAE, All (50 mg BID n = 4): 0 n (%) | Neutrophil count decreased TRAE, Gr≥3 (50 mg BID n = 4): 0 n (%) | Platelet count decreased TRAE, All (50 mg BID n = 4): 1 (25.0) n (%) | Platelet count decreased TRAE, Gr≥3 (50 mg BID n = 4): 0 n (%) | SAEs, events (50 mg BID n = 4): 1 n ev | SAEs, patients (50 mg BID n = 4): 1 (25.0) n (%) | TEAE Grade ≥3, events (50 mg BID n = 4): 3 n ev | TEAE Grade ≥3, patients (50 mg BID n = 4): 3 (75.0) n (%) | TEAEs leading to death, events (50 mg BID n = 4): 0 n ev | TEAEs leading to death, patients (50 mg BID n = 4): 0 n (%) | TEAEs leading to dose discontinuation, events (50 mg BID n = 4): 0 n ev | TEAEs leading to dose discontinuation, patients (50 mg BID n = 4): 0 n (%) | TEAEs leading to dose interruption, events (50 mg BID n = 4): 1 n ev | TEAEs leading to dose interruption, patients (50 mg BID n = 4): 1 (25.0) n (%) | TEAEs leading to dose reduction, events (50 mg BID n = 4): 1 n ev | TEAEs leading to dose reduction, patients (50 mg BID n = 4): 1 (25.0) n (%) | TRAEs Grade ≥3, events (50 mg BID n = 4): 2 n ev | TRAEs Grade ≥3, patients (50 mg BID n = 4): 2 (50.0) n (%) | TRAEs, events (50 mg BID n = 4): 26 n ev | TRAEs, patients (50 mg BID n = 4): 4 (100) n (%) | Vomiting TRAE, All (50 mg BID n = 4): 2 (50.0) n (%) | Vomiting TRAE, Gr≥3 (50 mg BID n = 4): 0 n (%) | WBC decreased TRAE, All (50 mg BID n = 4): 2 (50.0) n (%) | WBC decreased TRAE, Gr≥3 (50 mg BID n = 4): 0 n (%) | ALT increased TRAE, All (60 mg QD n = 5): 0 n (%) | ALT increased TRAE, Gr≥3 (60 mg QD n = 5): 0 n (%) | AST increased TRAE, All (60 mg QD n = 5): 0 n (%) | AST increased TRAE, Gr≥3 (60 mg QD n = 5): 0 n (%) | Anemia TRAE, All (60 mg QD n = 5): 0 n (%) | Anemia TRAE, Gr≥3 (60 mg QD n = 5): 0 n (%) | Any TEAE, All (60 mg QD n = 5): 5 (100) n (%) | Any TEAE, Gr≥3 (60 mg QD n = 5): 2 (40.0) n (%) | Any TEAE, events (60 mg QD n = 5): 33 n ev | Any TEAE, patients (60 mg QD n = 5): 5 (100) n (%) | Any TRAE, All (60 mg QD n = 5): 5 (100) n (%) | Any TRAE, Gr≥3 (60 mg QD n = 5): 0 n (%) | Appetite decreased TRAE, All (60 mg QD n = 5): 1 (20.0) n (%) | Appetite decreased TRAE, Gr≥3 (60 mg QD n = 5): 0 n (%) | Asthenia TRAE, All (60 mg QD n = 5): 1 (20.0) n (%) | Asthenia TRAE, Gr≥3 (60 mg QD n = 5): 0 n (%) | Blood bilirubin increased TRAE, All (60 mg QD n = 5): 0 n (%) | Blood bilirubin increased TRAE, Gr≥3 (60 mg QD n = 5): 0 n (%) | Blood creatinine increased TRAE, All (60 mg QD n = 5): 1 (20.0) n (%) | Blood creatinine increased TRAE, Gr≥3 (60 mg QD n = 5): 0 n (%) | Hypokalemia TRAE, All (60 mg QD n = 5): 1 (20.0) n (%) | Hypokalemia TRAE, Gr≥3 (60 mg QD n = 5): 0 n (%) | Nausea TRAE, All (60 mg QD n = 5): 1 (20.0) n (%) | Nausea TRAE, Gr≥3 (60 mg QD n = 5): 0 n (%) | Neutrophil count decreased TRAE, All (60 mg QD n = 5): 1 (20.0) n (%) | Neutrophil count decreased TRAE, Gr≥3 (60 mg QD n = 5): 0 n (%) | Platelet count decreased TRAE, All (60 mg QD n = 5): 2 (40.0) n (%) | Platelet count decreased TRAE, Gr≥3 (60 mg QD n = 5): 0 n (%) | SAEs, events (60 mg QD n = 5): 2 n ev | SAEs, patients (60 mg QD n = 5): 2 (40.0) n (%) | TEAE Grade ≥3, events (60 mg QD n = 5): 2 n ev | TEAE Grade ≥3, patients (60 mg QD n = 5): 2 (40.0) n (%) | TEAEs leading to death, events (60 mg QD n = 5): 0 n ev | TEAEs leading to death, patients (60 mg QD n = 5): 0 n (%) | TEAEs leading to dose discontinuation, events (60 mg QD n = 5): 1 n ev | TEAEs leading to dose discontinuation, patients (60 mg QD n = 5): 1 (20.0) n (%) | TEAEs leading to dose interruption, events (60 mg QD n = 5): 1 n ev | TEAEs leading to dose interruption, patients (60 mg QD n = 5): 1 (20.0) n (%) | TEAEs leading to dose reduction, events (60 mg QD n = 5): 0 n ev | TEAEs leading to dose reduction, patients (60 mg QD n = 5): 0 n (%) | TRAEs Grade ≥3, events (60 mg QD n = 5): 0 n ev | TRAEs Grade ≥3, patients (60 mg QD n = 5): 0 n (%) | TRAEs, events (60 mg QD n = 5): 27 n ev | TRAEs, patients (60 mg QD n = 5): 5 (100) n (%) | Vomiting TRAE, All (60 mg QD n = 5): 0 n (%) | Vomiting TRAE, Gr≥3 (60 mg QD n = 5): 0 n (%) | WBC decreased TRAE, All (60 mg QD n = 5): 2 (40.0) n (%) | WBC decreased TRAE, Gr≥3 (60 mg QD n = 5): 0 n (%) | ALT increased TRAE, All (80 mg QD n = 9): 1 (11.1) n (%) | ALT increased TRAE, Gr≥3 (80 mg QD n = 9): 0 n (%) | AST increased TRAE, All (80 mg QD n = 9): 2 (22.2) n (%) | AST increased TRAE, Gr≥3 (80 mg QD n = 9): 0 n (%) | Anemia TRAE, All (80 mg QD n = 9): 7 (77.8) n (%) | Anemia TRAE, Gr≥3 (80 mg QD n = 9): 3 (33.3) n (%) | Any TEAE, All (80 mg QD n = 9): 9 (100) n (%) | Any TEAE, Gr≥3 (80 mg QD n = 9): 6 (66.7) n (%) | Any TEAE, events (80 mg QD n = 9): 132 n ev | Any TEAE, patients (80 mg QD n = 9): 9 (100) n (%) | Any TRAE, All (80 mg QD n = 9): 9 (100) n (%) | Any TRAE, Gr≥3 (80 mg QD n = 9): 5 (55.6) n (%)
